Source: patent US11459325B2, “Heterocyclic compound” (Takeda Pharmaceutical Company Limited, priority 2018, dated 2022)

system: GBA mutant human fibroblasts GM008760; experiment: Glucosylceramide lowering assay; type: cell-based; conditions: 10 μM test compound, 4 days culture; GlcCer (C16:0)/Cer (C16:0) molar ratio of test compound group relative to DMSO control group x100; smaller value = glucosylceramide lowering
Experimental: Glucosylceramide Lowering Assay
Using GBA mutant human fibroblasts containing mutated glucosylceramidase, the effect of test compounds on glucosylceramide reduction was evaluated.
GBA mutant human fibroblasts GM008760 (Coriel Institute) were seeded in a 96-well multiwell plate at a density of 5,000 cells/100 μL culture solution/well. GlutaMAX (Thermo Fishcer Scientific), penicillin-streptomycin, and Minimum Essential Media (Thermo Fishcer Scientific) supplemented with 15% fetal bovine serum were used as a culture solution. After culturing for 2 days, a 10 mM DMSO solution of the test compound diluted with the culture solution was added to a 96-well plate by 100 μL to adjust a final test compound concentration to 10 μM. After culturing the cells for 4 days in the presence of the test compound, the culture solution was removed, and the cells adhered to the 96-well plate were washed with a phosphate buffer (ThermoFisher Scientific, product number 14190-144). A solvent composed of 50% ethanol and 50% isopropanol was added to the 96-well plate by 100 μL, and the intracellular lipids were dissolved by pipetting. A solution prepared by dissolving N-Octadecanoyl-D35-psychosine (50 ng/mL, Matreya LLC Inc.) as an internal standard in 50% ethanol and 50% isopropanol was added to the sample in an equal volume, and 2.5 μL of the centrifuged supernatant was used as the test compound group.
In the same manner as above, a control group was prepared by using DMSO instead of the 10 mM DMSO solution of the test compound.
For the test compound group and the control group, molar concentrations of glucosylceramide [GlcCer (C16:0)] and ceramide [Cer (C16:0)] were quantified using Rapidfire-MS/MS (API-5000, Turbo-ESI, SRM), and the glucosylceramide lowering effect of the test compound group relative to the control group was evaluated by the following formula. (GlcCer/Cer of test compound group)/(GlcCer/Cer of control group)×100 wherein GlcCer/Cer is the ratio of the molar concentration of glucosylceramide to that of ceramide.
In this test, when the numerical value obtained by the above calculation formula is small, glucosylceramide is metabolized to ceramide by the test compound, or the synthesis of glucosylceramide from ceramide is inhibited by the test compound, that is, it can be said that the test compound has a glucosylceramide lowering effect.

In the case of `Cc1cn(C)c(=O)c2c(C(=O)N3CC4CC4(c4ccc(Cl)cc4)C3)cn(C)c12` (stereo not drawn) [Example 265, 3-((1-(4-chlorophenyl)-3-azabicyclo[3.1.0]hex-3-yl)carbonyl)-1,5,7-trimethyl-1,5-dihydro-4H-pyrrolo[3,2-c]pyridin-4-one], the “10 μM GlcCer/Cer (% of control)” value is reported as 34 % of control.
With `Cc1cn(C)c(=O)c2c(C(=O)N3CC4CC4(c4ccc(OC(F)(F)F)cc4)C3)cnn12` (stereo not drawn) [Example 305, 5,7-dimethyl-3-((1-(4-(trifluoromethoxy)phenyl)-3-azabicyclo[3.1.0]hex-3-yl)carbonyl)pyrazolo[1,5-a]pyrazin-4(5H)-one] the “10 μM GlcCer/Cer (% of control)” value was 47 % of control.

same assay, conditions: Homo sapiens, Fibroblast, 96 h; 10 μM test compound, 4 days culture; GlcCer (C16:0)/Cer (C16:0) molar ratio of test compound group relative to DMSO control group x100; smaller value = glucosylceramide lowering

Going from `Cc1cn(C)c(=O)c2c(C(=O)N3CCC(Oc4ccc(C(F)(F)F)cc4)CC3)cn(C)c12` [Example 190, 1,5,7-trimethyl-3-((4-(4-(trifluoromethyl)phenoxy)piperidin-1-yl)carbonyl)-1,5-dihydro-4H-pyrrolo[3,2-c]pyridin-4-one] to `Cc1cn(C)c(=O)c2c(C(=O)N3CCC(Oc4ccc(OC(F)(F)F)cc4)CC3)cn(C)c12` [Example 288, 1,5,7-trimethyl-3-((4-(4-(trifluoromethoxy)phenoxy)piperidin-1-yl)carbonyl)-1,5-dihydro-4H-pyrrolo[3,2-c]pyridin-4-one], the activity at 10 µM falls from 29% to 27%.

First: Cc1cn(C)c(=O)c2c(C(=O)N3C[C@H]4C[C@@]4(c4ccc(Cl)c(Cl)c4)C3)cn(C)c12 [Example 205, 3-(((1R,5S)-1-(3,4-dichlorophenyl)-3-azabicyclo[3.1.0]hex-3-yl)carbonyl)-1,5,7-trimethyl-1,5-dihydro-4H-pyrrolo[3,2-c]pyridin-4-one]
Second: Cc1cn(C)c(=O)c2c(C(=O)N3C[C@@H]4C[C@]4(c4ccc(Cl)c(Cl)c4)C3)cn(C)c12 [Example 206, 3-(((1S,5R)-1-(3,4-dichlorophenyl)-3-azabicyclo[3.1.0]hex-3-yl)carbonyl)-1,5,7-trimethyl-1,5-dihydro-4H-pyrrolo[3,2-c]pyridin-4-one]
The activity at 10 µM of the first is higher: 62% for the first, 49% for the second.

Compared with `Cc1cn(C)c(=O)c2c(C(=O)NCc3ccc(-c4ccc(Cl)cc4)s3)cn(C)c12` [Example 217, N-((5-(4-chlorophenyl)-2-thienyl)methyl)-1,5,7-trimethyl-4-oxo-4,5-dihydro-1H-pyrrolo[3,2-c]pyridine-3-carboxamide], `Cc1cn(C)c(=O)c2c(C(=O)NC(C)(C)c3ccc(Cl)cc3)cn(C)c12` [Example 221, N-(2-(4-chlorophenyl)propan-2-yl)-1,5,7-trimethyl-4-oxo-4,5-dihydro-1H-pyrrolo[3,2-c]pyridine-3-carboxamide] is lower in activity at 10 µM: 64% for the first, 44% for the second.

Compared with `Cc1cn(C)c(=O)c2c(C(=O)NC(C)(C)c3ccccc3)cn(C)c12` [Example 219, 1,5,7-trimethyl-4-oxo-N-(2-phenylpropan-2-yl)-4,5-dihydro-1H-pyrrolo[3,2-c]pyridine-3-carboxamide], `Cc1cn(C)c(=O)c2c(C(=O)Nc3cccc(OCc4ccccc4)c3)cn(C)c12` [Example 231, N-(3-(benzyloxy)phenyl)-1,5,7-trimethyl-4-oxo-4,5-dihydro-1H-pyrrolo[3,2-c]pyridine-3-carboxamide] is lower in activity at 10 µM: 63% for the first, 59% for the second.

First: Cc1cn(C)c(=O)c2c(C(=O)NC3(c4cccc(Cl)c4)CCC3)cn(C)c12 [Example 227, N-(1-(3-chlorophenyl)cyclobutyl)-1,5,7-trimethyl-4-oxo-4,5-dihydro-1H-pyrrolo[3,2-c]pyridine-3-carboxamide]
Second: Cc1cn(C)c(=O)c2c(C(=O)NC3(c4ccc(Cl)cc4)CCC3)cn(C)c12 [Example 228, N-(1-(4-chlorophenyl)cyclobutyl)-1,5,7-trimethyl-4-oxo-4,5-dihydro-1H-pyrrolo[3,2-c]pyridine-3-carboxamide]
The activity at 10 µM of the first is higher: 59% for the first, 43% for the second.

Compared with `Cc1cn(C)c(=O)c2c(C(=O)N3CCC(c4ccc(Cl)cc4)CC3)cn(C)c12` [Example 258, 3-((4-(4-chlorophenyl)piperidin-1-yl)carbonyl)-1,5,7-trimethyl-1,5-dihydro-4H-pyrrolo[3,2-c]pyridin-4-one], `Cc1cn(C)c(=O)c2c(C(=O)N3CC4CC4(c4ccc5ccccc5c4)C3)cn(C)c12` (stereo not drawn) [Example 261, 1,5,7-trimethyl-3-((1-(2-naphthyl)-3-azabicyclo[3.1.0]hex-3-yl)carbonyl)-1,5-dihydro-4H-pyrrolo[3,2-c]pyridin-4-one] is higher in activity at 10 µM: 64% for the first, 65% for the second.

First: Cc1cn(C)c(=O)c2c(C(=O)N3CC4CC4(c4cccc5ccccc45)C3)cn(C)c12 (stereo not drawn) [Example 262, 1,5,7-trimethyl-3-((1-(1-naphthyl)-3-azabicyclo[3.1.0]hex-3-yl)carbonyl)-1,5-dihydro-4H-pyrrolo[3,2-c]pyridin-4-one]
Second: Cc1cn(C)c(=O)c2c(C(=O)N3CC4CC4(c4ccc(Cl)cc4)C3)cnn12 (stereo not drawn) [Example 304, 3-((1-(4-chlorophenyl)-3-azabicyclo[3.1.0]hex-3-yl)carbonyl)-5,7-dimethylpyrazolo[1,5-a]pyrazin-4(5H)-one]
The activity at 10 µM of the first is lower: 51% for the first, 64% for the second.

Compared with `CCCCO[C@H]1CC[C@H](NC(=O)c2nn(C)c3c(C)cn(C)c(=O)c23)CC1` [Example 277, N-(trans-4-butoxycyclohexyl)-1,5,7-trimethyl-4-oxo-4,5-dihydro-1H-pyrazolo[4,3-c]pyridine-3-carboxamide], `CCCCO[C@H]1CC[C@H](NC(=O)c2cnn3c(C)cn(C)c(=O)c23)CC1` [Example 283, N-(trans-4-butoxycyclohexyl)-5,7-dimethyl-4-oxo-4,5-dihydropyrazolo[1,5-a]pyrazine-3-carboxamide] is lower in activity at 10 µM: 77% for the first, 75% for the second.

Going from `Cc1cn(C)c(=O)c2c(C(=O)Nc3ccccc3OCc3ccccc3)n(C)nc12` [Example 282, N-(2-(benzyloxy)phenyl)-2,5,7-trimethyl-4-oxo-4,5-dihydro-2H-pyrazolo[4,3-c]pyridine-3-carboxamide] to `COc1ccccc1-n1ccc2c(c(C(=O)Nc3ccc(N4CCOCC4)cc3)cn2C)c1=O` [Example 293, 5-(2-methoxyphenyl)-1-methyl-N-(4-(morpholin-4-yl)phenyl)-4-oxo-4,5-dihydro-1H-pyrrolo[3,2-c]pyridine-3-carboxamide], the activity at 10 µM falls from 66% to 52%.

Going from `Cc1cn(C)c(=O)c2c(C(=O)NCc3noc(-c4ccc(Cl)cc4)n3)cnn12` [Example 286, N-((5-(4-chlorophenyl)-1,2,4-oxadiazol-3-yl)methyl)-5,7-dimethyl-4-oxo-4,5-dihydropyrazolo[1,5-a]pyrazine-3-carboxamide] to `Cc1cn(C)c(=O)c2c(C(=O)NC(C)(C)c3ccc(Cl)cc3)cnn12` [Example 306, N-(2-(4-chlorophenyl)propan-2-yl)-5,7-dimethyl-4-oxo-4,5-dihydropyrazolo[1,5-a]pyrazine-3-carboxamide], the activity at 10 µM falls from 67% to 51%.

First: Cn1cc(C(=O)Nc2ccc(N3CCOCC3)cc2)c2c(=O)n(CC#N)ccc21 [Example 292, 5-(cyanomethyl)-1-methyl-N-(4-(morpholin-4-yl)phenyl)-4-oxo-4,5-dihydro-1H-pyrrolo[3,2-c]pyridine-3-carboxamide]
Second: COc1cc(F)ccc1-n1ccc2c(c(C(=O)Nc3ccc(N4CCOCC4)cc3)cn2C)c1=O [Example 295, 5-(4-fluoro-2-methoxyphenyl)-1-methyl-N-(4-(morpholin-4-yl)phenyl)-4-oxo-4,5-dihydro-1H-pyrrolo[3,2-c]pyridine-3-carboxamide]
The activity at 10 µM of the first is higher: 89% for the first, 66% for the second.

First: Cn1cc(C(=O)Nc2ccc(N3CCOCC3)cc2)c2c(=O)n(-c3ccccc3OCC(F)(F)F)ccc21 [Example 294, 1-methyl-N-(4-(morpholin-4-yl)phenyl)-4-oxo-5-(2-(2,2,2-trifluoroethoxy)phenyl)-4,5-dihydro-1H-pyrrolo[3,2-c]pyridine-3-carboxamide]
Second: Cn1cc(C(=O)NC(C)(C)c2ccc(Cl)cc2)c2c(=O)n(CC#N)ccc21 [Example 296, N-(2-(4-chlorophenyl)propan-2-yl)-5-(cyanomethyl)-1-methyl-4-oxo-4,5-dihydro-1H-pyrrolo[3,2-c]pyridine-3-carboxamide]
The activity at 10 µM of the first is lower: 36% for the first, 52% for the second.

For `Cc1cn(C)c(=O)c2c(C(=O)N3CCC(Oc4ccc(OC(F)(F)F)cc4)CC3)cnn12` [Example 303, 5,7-dimethyl-3-((4-(4-(trifluoromethoxy)phenoxy)piperidin-1-yl)carbonyl)pyrazolo[1,5-a]pyrazin-4(5H)-one], the activity at 10 µM was 60%.
